Results published in PubChem BioAssay (NCI).
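Method: 48-hour compound exposure of cells in 96-well plates, five concentrations, linear interpolation of endpoints. At the GI50, growth is halved. Definition used: TGI = concentration required for complete inhibition of growth.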

Columns and labels:
Assay in all cases: inhibition of tumour cell growth, NCI panel, 48 h
[1] = test system: KM12 colon
[2] = test system: OVCAR-3 ovarian
[3] = test system: UO-31 renal
[4] = test system: T-47D breast
[5] = test system: HCT-116 colon
[6] = test system: MDA-MB-231 breast
[7] = test system: SK-MEL-28 melanoma
[8] = test system: OVCAR-4 ovarian
[9] = test system: A549 NSCLC
[10] = test system: SR leukemia
[11] = test system: TK-10 renal
[12] = test system: EKVX NSCLC
[13] = test system: SF-539 CNS
[14] = test system: BT-549 breast
[15] = test system: SN12C renal
[16] = test system: SNB-75 CNS
[17] = test system: HT29 colon
[18] = test system: NCI-H226 lung
[19] = test system: SK-MEL-5 melanoma
[20] = test system: SW-620 colon
[21] = test system: COLO 205 colon
[22] = test system: M14 melanoma
[23] = test system: SNB-19 CNS
[24] = test system: MDA-MB-435
[25] = test system: LOX IMVI melanoma
[26] = test system: A498 renal
[27] = test system: OVCAR-5 ovarian
[28] = test system: PC-3 prostate
[29] = test system: ACHN renal
[30] = test system: HCC-2998 colon
[31] = test system: RPMI-8226 leukemia
[32] = test system: NCI-H23 lung
[33] = test system: CAKI-1 renal
[34] = test system: NCI-H460 lung
[35] = test system: 786-0 renal
[36] = test system: MALME-3M melanoma
[37] = test system: UACC-62 melanoma
[38] = test system: UACC-257 melanoma
[39] = test system: SF-295 CNS
[40] = test system: SK-OV-3 ovarian
[41] = test system: MOLT-4 leukemia
[42] = test system: MCF7 breast
[43] = test system: HOP-62 NSCLC
[44] = test system: NCI-H522 lung
[45] = test system: HS 578T breast
[46] = test system: SF-268 CNS
[47] = test system: RXF 393 renal
[48] = test system: CCRF-CEM leukemia
[49] = test system: DU-145 prostate
[50] = test system: OVCAR-8 ovarian
[51] = test system: HCT-15 colon
[52] = test system: SK-MEL-2 melanoma
[53] = test system: U251 CNS
[54] = test system: IGROV1 ovarian
[55] = test system: K-562 leukemia
[56] = test system: HL-60(TB) leukemia
[57] = test system: NCI/ADR-RES ovarian
[58] = test system: HOP-92 NSCLC

Compound `C/C=C/c1cc2c(cc1O)CC[C@@H]1[C@@H]2CC[C@]2(C)[C@@H](O)CC[C@@H]12` has a TGI [1] of 13.4 µM, a TGI [2] of 2.24 µM and a TGI [3] of 18.5 µM. For the same compound, the TGI [4] was 41.7 µM, the TGI [5] was 5.17 µM and the TGI [6] was 4.94 µM. For the same compound, the TGI [7] was 21.6 µM, the TGI [8] was 27.2 µM and the TGI [9] was 15.9 µM. The TGI [10] was greater than 19.6 µM, the TGI [11] was 27.3 µM and the TGI [12] was 24.7 µM. It also gave a TGI [13] of 0.15 µM, a TGI [14] of 22.8 µM and a TGI [15] of 20.5 µM. The TGI [16] was 3.48 µM, the TGI [17] was 20.4 µM and the TGI [18] was 1.96 µM. The TGI [19] was 14.2 µM, the TGI [20] was 19 µM and the TGI [21] was 24.4 µM. It also gave a TGI [22] of 4.05 µM, a TGI [23] of 14.9 µM and a TGI [24] of 0.0948 µM. It also gave a TGI [25] of 24.3 µM, a TGI [26] of 6.11 µM and a TGI [27] of 25.4 µM. It also gave a TGI [28] of 23 µM, a TGI [29] of 15.5 µM and a TGI [30] of 7.13 µM. It also gave a TGI [31] greater than 82.6 µM, a TGI [32] of 4.62 µM and a TGI [33] of 21.1 µM. The TGI [34] was 14.3 µM, the TGI [35] was 13.8 µM and the TGI [36] was 23.1 µM. For the same compound, the TGI [37] was 15.4 µM, the TGI [38] was 22.4 µM and the TGI [39] was 14.2 µM. It also gave a TGI [40] of 15.3 µM, a TGI [41] of 15.8 µM and a TGI [42] of 1.28 µM. The TGI [43] was 16.3 µM, the TGI [44] was 0.117 µM and the TGI [45] was 22.3 µM. For the same compound, the TGI [46] was 21.5 µM, the TGI [47] was 1.3 µM and the TGI [48] was 8.44 µM. For the same compound, the TGI [49] was 3.05 µM, the TGI [50] was 18.1 µM and the TGI [51] was 18 µM. The TGI [52] was 16.7 µM, the TGI [53] was 13 µM and the TGI [54] was 19 µM. It also gave a TGI [55] of 15.7 µM.
In the case of `COc1cc(S(=O)(=O)Nc2ccc(-c3csc(N4C(=O)C(C)SC4c4cccs4)n3)cc2)ccc1Cl` (stereo not given), the TGI [1] is reported as 23 µM, the TGI [2] is reported as greater than 100 µM and the TGI [3] is reported as greater than 100 µM. For the same compound, the TGI [4] was 27.3 µM, the TGI [56] was 41.7 µM and the TGI [5] was greater than 100 µM. For the same compound, the TGI [7] was 69 µM, the TGI [10] was greater than 100 µM and the TGI [57] was greater than 100 µM. It also gave a TGI [12] greater than 100 µM, a TGI [13] greater than 100 µM and a TGI [14] greater than 100 µM. The TGI [15] was greater than 100 µM, the TGI [17] was greater than 100 µM and the TGI [18] was greater than 100 µM. For the same compound, the TGI [19] was greater than 100 µM, the TGI [20] was greater than 100 µM and the TGI [21] was 49.4 µM. The TGI [22] was greater than 100 µM, the TGI [24] was greater than 100 µM and the TGI [25] was 96.7 µM. The TGI [26] was greater than 100 µM, the TGI [27] was greater than 100 µM and the TGI [28] was greater than 100 µM. The TGI [29] was greater than 100 µM, the TGI [31] was greater than 100 µM and the TGI [32] was greater than 100 µM. For the same compound, the TGI [33] was greater than 100 µM, the TGI [35] was greater than 100 µM and the TGI [36] was greater than 100 µM. The TGI [37] was greater than 100 µM, the TGI [39] was greater than 100 µM and the TGI [58] was greater than 100 µM. It also gave a TGI [40] greater than 100 µM, a TGI [41] greater than 100 µM and a TGI [42] greater than 100 µM. For the same compound, the TGI [43] was greater than 100 µM, the TGI [44] was 56.6 µM and the TGI [45] was greater than 100 µM. It also gave a TGI [46] greater than 100 µM, a TGI [47] of 31.1 µM and a TGI [48] of 52.2 µM. For the same compound, the TGI [49] was 53.1 µM, the TGI [50] was greater than 100 µM and the TGI [51] was greater than 100 µM. It also gave a TGI [52] of 22.8 µM, a TGI [54] greater than 100 µM and a TGI [55] greater than 100 µM.
Compound `COc1cc2c(cc1OC)C(C(CCCCCC(CCC(C)C)C1NCCc3cc(OC)c(OC)cc31)CCC(C)C)NCC2` (stereo not given) has a GI50 [1] of 0.438 µM, a TGI [1] of 1.26 µM and a GI50 [2] of 1.61 µM. The TGI [2] was 3.12 µM, the GI50 [3] was 1.59 µM and the TGI [3] was 3.22 µM. For the same compound, the GI50 [4] was 1.44 µM, the TGI [4] was 3.06 µM and the GI50 [56] was 0.878 µM. For the same compound, the TGI [56] was 2.55 µM, the GI50 [5] was 0.199 µM and the TGI [5] was 0.388 µM. It also gave a GI50 [6] of 0.791 µM, a TGI [6] of 2.41 µM and a GI50 [7] of 1.85 µM. The TGI [7] was 3.28 µM, the GI50 [8] was 1.54 µM and the TGI [8] was 2.92 µM. It also gave a GI50 [9] of 0.98 µM, a TGI [9] of 2.44 µM and a GI50 [11] of 1.76 µM. The TGI [11] was 3.21 µM, the GI50 [57] was 1.44 µM and the TGI [57] was 2.94 µM. For the same compound, the GI50 [12] was 1.49 µM, the TGI [12] was 3.2 µM and the GI50 [13] was 1.79 µM. The TGI [13] was 3.27 µM, the GI50 [14] was 1.72 µM and the TGI [14] was 3.12 µM. For the same compound, the GI50 [15] was 1.44 µM, the TGI [15] was 2.87 µM and the GI50 [16] was 1.62 µM. For the same compound, the TGI [16] was 3.05 µM, the GI50 [17] was 0.328 µM and the TGI [17] was 0.874 µM. The GI50 [18] was 1.79 µM, the TGI [18] was 3.6 µM and the GI50 [19] was 1.65 µM. For the same compound, the TGI [19] was 3.04 µM, the GI50 [20] was 0.193 µM and the TGI [20] was 0.387 µM. It also gave a GI50 [21] of 0.225 µM, a TGI [21] of 0.464 µM and a GI50 [22] of 0.449 µM. The TGI [22] was 1.51 µM, the GI50 [23] was 1.45 µM and the TGI [23] was 2.87 µM. For the same compound, the GI50 [24] was 0.516 µM, the TGI [24] was 2.25 µM and the GI50 [25] was 0.194 µM. For the same compound, the TGI [25] was 0.408 µM, the GI50 [26] was 1.51 µM and the TGI [26] was 2.99 µM. The GI50 [27] was 1.69 µM, the TGI [27] was 3.17 µM and the GI50 [28] was 1.58 µM. The TGI [28] was 3.12 µM, the GI50 [29] was 1.68 µM and the TGI [29] was 3.17 µM. It also gave a GI50 [30] of 0.188 µM, a TGI [30] of 0.357 µM and a GI50 [31] of 0.327 µM. It also gave a TGI [31] of 0.974 µM, a GI50 [32] of 1.66 µM and a TGI [32] of 3.18 µM. The GI50 [33] was 1.55 µM, the TGI [33] was 3.19 µM and the GI50 [34] was 0.217 µM. The TGI [34] was 0.436 µM, the GI50 [35] was 1.73 µM and the TGI [35] was 3.46 µM. For the same compound, the GI50 [36] was 2.01 µM, the TGI [36] was 4.03 µM and the GI50 [37] was 1.59 µM. It also gave a TGI [37] of 2.97 µM, a GI50 [38] of 1.63 µM and a TGI [38] of 3.08 µM. The GI50 [39] was 1.64 µM, the TGI [39] was 3.43 µM and the GI50 [58] was 0.808 µM. The TGI [58] was 2.46 µM, the GI50 [40] was 1.58 µM and the TGI [40] was 2.99 µM. For the same compound, the GI50 [42] was 0.651 µM, the TGI [42] was 1.91 µM and the GI50 [43] was 1.55 µM. The TGI [43] was 3.11 µM, the GI50 [44] was 1.72 µM and the TGI [44] was 3.24 µM. The GI50 [45] was 1.42 µM, the TGI [45] was 3.43 µM and the GI50 [46] was 1.34 µM. For the same compound, the TGI [46] was 2.79 µM, the GI50 [47] was 1.3 µM and the TGI [47] was 2.75 µM. For the same compound, the GI50 [48] was 0.489 µM, the TGI [48] was 2.13 µM and the GI50 [49] was 1.19 µM. The TGI [49] was 2.55 µM, the GI50 [50] was 1.01 µM and the TGI [50] was 2.52 µM. For the same compound, the GI50 [51] was 0.274 µM, the TGI [51] was 0.851 µM and the GI50 [52] was 2.1 µM. The TGI [52] was 3.72 µM, the GI50 [53] was 0.285 µM and the TGI [53] was 0.979 µM. The GI50 [54] was 2.08 µM, the TGI [54] was 3.94 µM and the GI50 [55] was 0.201 µM. For the same compound, the TGI [55] was 0.441 µM.
